In patent publication EP0314239A2, “Tripeptide renin inhibitors with N-terminal ureido or sulfamido groups” (Merck & Co., Inc., priority 1987, dated 1989):

Biological target: T1, renin (Homo sapiens, UniProt P00797)
T1 sequence (P00797 67-406): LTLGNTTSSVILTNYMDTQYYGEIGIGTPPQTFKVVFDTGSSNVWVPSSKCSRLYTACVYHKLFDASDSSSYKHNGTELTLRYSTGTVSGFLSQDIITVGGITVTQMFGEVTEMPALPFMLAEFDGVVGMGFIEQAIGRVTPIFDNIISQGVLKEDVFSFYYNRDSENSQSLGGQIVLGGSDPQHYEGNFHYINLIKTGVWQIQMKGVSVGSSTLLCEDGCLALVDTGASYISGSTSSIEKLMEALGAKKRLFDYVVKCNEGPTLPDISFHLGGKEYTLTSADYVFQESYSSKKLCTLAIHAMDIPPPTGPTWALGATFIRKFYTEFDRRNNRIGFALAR
Assay: Renin inhibition IC50, by the methods of J. Med. Chem., 1985, 28, 1789-1790
Assay type: biochemical
Source text: The following examples are intended to be representative and not limiting. ICso results were obtained according to the methods described in J. Med. Chem., 1985, 28, 1789-1790.

| Compound | IC50 [nM] |
| --- | --- |
| CC[C@H](C)CNC(=O)C[C@H](O)[C@H](CC1CCCCC1)NC(=O)[C@H](Cc1c[nH]cn1)NC(=O)[C@H](Cc1ccccc1)NC(=O)N1CCN(C(=O)OC(C)(C)C)CC1 [Example 5, N-(4-Boc-Piperizinyl)Carbonyl-Phenylalanyl-Histidyl-ACHPA-2(S)Methylbutylamide] | 10 |
| C[N+]12CCC(CC1)C(NC(=O)C[C@H](O)[C@H](CC1CCCCC1)NC(=O)[C@H](Cc1c[nH]cn1)NC(=O)[C@H](Cc1ccccc1)NC(=O)N1CCOCC1)C2 (stereo partly drawn) [Example 7, N-(morpholin-4-yl)carbonyl-L-Phenylalanyl-L-Histidyl(3S,4S)-4-Amino-5-Cyclohexyl-3-Hydroxypentanoyl-1-Methylquinuclidinium-3-yl-Amide Acetate] | 29 |
| O=C(C[C@H](O)[C@H](CC1CCCCC1)NC(=O)[C@H](Cc1c[nH]cn1)NC(=O)[C@H](Cc1ccccc1)NC(=O)N1CCOCC1)NC1CN2CCC1CC2 (stereo partly drawn) [N-(morpholin-4-yl)carbonyl-L-Phenylalanyl-L-Histidyl-(3S,4S)-4-amino-5-cyclohexyl-3-hydroxy pentanoyl-3-quinuclidinyl amide] | 30 |

The remaining lines, values ahead:

| IC50 [nM] | Compound |
| --- | --- |
| 5 | CC[C@H](C)CNC(=O)C[C@H](O)[C@H](CC1CCCCC1)NC(=O)[C@H](Cc1c[nH]cn1)NC(=O)[C@H](Cc1ccccc1)NC(=O)N1CCOCC1 [Example 4, N-(Morpholin-4-yl)carbonyl-Phenylalanyl-Histidyl-ACHPA-2(S)-Methylbutylamide] |
| 43 | CC[C@H](C)CNC(=O)C[C@H](O)[C@H](CC1CCCCC1)NC(=O)[C@H](Cc1c[nH]cn1)NC(=O)[C@H](Cc1ccccc1)NC(=O)N1CCNCC1 [Example 6, N-(Piperazin-1-yl)carbonyl-Phenylalanyl-Histidyl-ACHPA-2(S)-Methylbutylamide] |
